Holding throughout (assay type): cell-based, human
The test system of assay [1] is vHMEC-ras0.5 cells. As to the kind of experiment: TGFβ-induced EMT in vHMEC-ras0.5 cells (immunofluorescence, flow cytometry, immunoblot, MSP). As for the experimental part:
Having observed that extracellular signaling induced by 10% serum can cooperate with intracellular ras activation to induce EMT in vHMEC, it was then asked whether appropriate growth factor stimulation could induce EMT in the immortalized vHMEC-ras0.5 cells which had maintained their epithelial morphology. […] Thiery et al. (2003) Curr. Opinion Cell. Biol. 15:740; and Zavadil et al. (2005) Oncogene 24:5764. vHMEC-ras0.5 cells were treated with TGFβ and the expression of molecular markers associated with EMT was assessed by immunofluorescence, flow cytometry, and immunoblot analysis. […] Coincident with the loss of epithelial marker expression was an upregulation in the expression of the mesenchymal markers, twist (FIG. 18B), N-cadherin, and fibronectin (FIG. 18C).
Unlike the EMT observed in cells exposed to 10% serum, TGFβ-induced EMT is reversible. […] As expected, the promoter of the epithelial marker 14-3-3σ remained unmethylated in all the epithelial cells, and methylated in the human mammary fibroblasts, which were used as a positive control (FIG. 18D).
FIGS. 18A-D. TGFβ induces EMT in vHMEC-ras0.5 cells without modulating methylation of E-cadherin. A. Inununofluorescence analysis. Cells were treated with 2 ng/ml TGFβ for 72 h, and immunostained for pancytokeratin, E-cadherin, β 1-integrin, and vimentin. B. Flow cytometric analysis of twist expression before (green curve) and after (purple curve) treatment with 2 ng/ml TGFβ for 72 h. C. Immunoblot analysis of the mesenchymal markers fibronectin (Fn) and N-cadherin (N-cad) was performed on cell lysates prepared from vHMEC-ras0.5 that were either untreated (−) or treated (+) with 2 ng/ml TGFβ for 72 h. Cell lystates prepared from human mammary fibroblasts were used as a positive control (C) and actin is shown as a loading control. D. MSP analysis of E-cadherin and 14-3 3σ was conducted on the PCR products of bisulfite-treated DNA isolated from vHMEC-ras0.5 untreated (−TGF) or treated (+TGF) with 2 ng/ml TGFβ for 96 h as described in FIGS. 3B and C. Bisulfite-modified DNA from MCF7 and MDA-MB-231 cells was used as unmethylated and methylated control templates, respectively for E-cadherin, while bisulfite-modified DNA from MDA-MB-231 and human mammary fibroblasts (HMF) served as unmethylated and methylated controls for 14-3-3s. Also included is a water control (no template).
For orientation: A flow cytometer gives signals particle by particle.

The test system of assay [2] is vHMEC-ras0.5 cells. As to the kind of experiment: scratch migration assay of vHMEC-ras0.5 monolayers with time-lapse microscopy. Conditions: TGFβ treated versus untreated cells.
For the next assay, the system named is COX-2 in HMEC. As to the kind of experiment: exogenous induction of COX-2 by TGF-β in HMEC with modulated p16/Rb pathway (immunoblot). The text has this: DNA constructs. DNA constructs used in this study are as follows: pMSCV, pMSCV-shp16 (G. Hannon and S. Lowe, Cold Spring Harbor Laboratories); pLXSN, pLXSN-HPV 16 E7 (D. Galloway, Fred Hutchinson Cancer Center); pMKO, pMKO-shRb (W. Hahn, Harvard Medical School and Dana-Farber Cancer Institute), pBabe; pBabe-cyclinD1 (O. Tetsu, UCSF Cancer Center), pBabe, pBabe-hTert (K. Collins, UC-Berkeley); LXSP and LXSP-COX-2 (D. Dixon, Vanderbilt University Medical Center). All constructs were packaged in Phoenix A cells for viral propagation. To generate stable cell lines we exposed HMEC, vHMEC or breast cell lines to viral supernatant containing 8 μg/ml Polybrene (Sigma). Cells containing stable DNA integration were selected in medium containing 4 μg/ml puromycin (pMSCV, pMKO, and LXSP constructs), 50 μg/ml G418 (LXSN constructs) or 20 μg/nil hygromycin (pBabe). Where indicated, cell lines were imaged using a standard phase contrast microscopy.
Western Blot. Total protein (15-20 μg) lysates were electrophoretically separated by SDS-PAGE and transferred onto polyvinylidene difluoride (PVDF) membranes according to standard procedures. Antisera against COX-2 (160107; Cayman Chemical, MI), Rb (554136, BD Pharmingen), p16 (16P07 Neomarkers), E2F1 (sc-251 Santa Cruz), cyclinD1 (2926, Cell Signaling), p53 (se-126, Santa Cruz), p21 (SC-6246 Santa Cruz) were used according to manufacturers protocols.
To test this hypothesis, specific members of the p16/Rb pathway were genetically modulated, and the levels of COX-2 protein expression compared to HMEC that maintain p16 expression were determined. First, basal and induced COX-2 protein levels in HMEC lacking p16 activity were compared.
To extend this analysis, we determined how other alterations within this pathway, mutations common in cancer, affect COX-2 expression. We modulated the p16/Rb pathway by three additional methods, cyclin D1 overexpression, pRb downregulation, and expression of a viral oncoprotein, HPV 16-E7 and determined the effect on basal and exogenously-induced COX-2 protein levels. To determine if cyclin D1 induces and/or sensitizes cells to COX-2 induction, we measured COX-2 protein levels in HMEC engineered to stably express cyclin D1 under the regulation of an independent, constitutively active promoter. […] The absence of E2F1 upregulation following cyclin D1 overexpression supports our finding that Rb remains active. […] To determine if inactivation of Rb is sufficient for the upregulation of COX-2, we infected HMEC with a retrovirus containing a short hairpin RNA against Rb (shRb) and determined COX-2 protein levels in cells from two independent experiments. […] Similar to results obtained with Rb genetic silencing, expression of the human papilloma virus 16-E7 (HPV 16-E7) elevated both basal and induced levels of COX-2 protein (FIG. 12D). Stable expression of HPV16-E7 was performed in cells generated from three independent reduction mammoplasties. Mammary epithelial cells expressing HPV 16-E7 show downregulation of Rb and thus inactivation of Rb and consequently upregulation of E2F1 (FIG. 12D). HPV16-E7 is well characterized for its role as a transforming oncoprotein through targeted degradation of all three members of Rb family (Rb, p107 and p130) and driving E2F-dependent transactivation.
FIG. 12A-E. Deregulation of distinct members of the p16/cyclin D1/Rb pathway differentially regulate COX-2. […]
In general terms: Immunoblotting shows a protein as a band on a membrane.

Where [3] appears, read: 2 ng/ml TGFβ for 72 h, immunofluorescence.

The source of these data is patent publication US12332245B2, “Cancer biomarkers and methods of use thereof” (THE REGENTS OF THE UNIVERSITY OF CALIFORNIA, priority 2006, dated 2025).

TGF-β: in the assay on vHMEC-ras0.5 cells [1] (2 ng/ml TGFβ for 72 h, flow cytometry and immunoblot), the “expression of the mesenchymal markers twist, N-cadherin and fibronectin” value is reported as “upregulation”. Besides, in the assay with vHMEC-ras0.5 cells [1] (setting [3]), the E-cadherin expression result was “loss”. Further, the cytokeratin expression result with vHMEC-ras0.5 cells [1] (setting [3]) is on record as “diminution”. The β1-integrin expression result in the assay on vHMEC-ras0.5 cells [1] (setting [3]) is recorded as “loss”. In addition, the “methylation of the E-cadherin promoter” value in the assay with vHMEC-ras0.5 cells [1] (2 ng/ml TGFβ for 96 h, MSP) is reported as “not observed”. Also, the “cell morphology (EMT)” value in the assay with vHMEC-ras0.5 cells [1] (2 ng/ml TGFβ, began within 48 h, clearly manifested by 72 h) is reported as “morphological change”. Further, the “migration into the denuded area” value in the assay with vHMEC-ras0.5 cells [2] is “increase in directed migration”. The “COX-2 protein after exogenous induction” value in the assay on COX-2 in HMEC (HMEC expressing HPV 16-E7, 24 h exposure to 1 ng/ml TGF-β) was “elevated”; in the assay with COX-2 in HMEC (HMEC overexpressing cyclin D1, 24 h exposure to 1 ng/ml TGF-β) it was “failed to render cells sensitive”; with COX-2 in HMEC (HMEC with shRb, 24 h exposure to 1 ng/ml TGF-β) it was “increased”; in the assay with COX-2 in HMEC (p16 silenced HMEC (shp16), 24 h exposure to 1 ng/ml TGF-β), “COX-2 upregulation”; in the assay with COX-2 in HMEC (vector control HMEC (pMSCV), 24 h exposure to 1 ng/ml TGF-β) it was “unresponsive”.
